{
  "source": "patent US6737425B1",
  "about": "“N,N-substituted cyclic amine derivatives” (Eisai Co., Ltd., priority 1998, dated 2004)",
  "key": {"mice in a formalin test": {"system": "mice in a formalin test", "assay": "Antalgic effect (II) on mice in a formalin test (comparison with morphine and indomethacin)", "type": "in vivo", "method": "Antalgic Effect (II) on Mice in a Formalin Test\nThe typical example of the compound of the present invention (the compound in Example 1) was compared with morphine and indomethacin in the same manner as in Pharmacological Experimental Example 5 above.\n20.4 mg of the compound of the present invention was weighed, and 10.2 ml of 5.28% mannitol was added thereto to prepare 2 mg/ml (20 mg/kg) solution. Then, 3.8 ml of 5.28% mannitol was added to 3.8 ml of the 2 mg/ml solution to prepare 1 mg/ml (10 mg/kg) solution. Finally, 2.5 ml of 5.28% mannitol was added to 2.5 ml of the 1 mg/ml solution to prepare 0.5 mg/ml (5 mg/kg) solution. The test compound was weighed and prepared on the day when the experiment was conducted.\nb-1) Morphine 17.0 mg of morphine purchased as a reagent was weighed, and 5.67 ml physiological saline was added thereto to form 3 mg/ml (30 mg/kg) solution. Then, 2.6 ml physiological saline was added to 1.3 ml of the 3 mg/ml solution to prepare 1 mg/ml (10 mg/kg) solution. Finally, 2.1 ml physiological saline was added to 0.9 ml of the 1 mg/ml solution to prepare 0.3 mg/ml (3 mg/kg) solution. The test compound was weighed and prepared on the day when the experiment was conducted.\n12.9 mg of indomethacin purchased as a reagent was weighed, and 12.9 ml of 0.5% methyl cellulose (MC) was added thereto to form 1 mg/ml (10 mg/kg) suspension. Then, 2.24 ml of 0.5% MC was added to 0.96 ml of the 1 mg/ml suspension to prepare 0.3 mg/ml (3 mg/kg) suspension. Finally, 1.6 ml of 0.5% MC was added to 0.8 ml of the 0.3 mg/ml suspension to prepare 0.1 mg/ml (1 mg/kg) suspension. The test compound was weighed and prepared on the day when the experiment was conducted.\nThe treatment group by the compound of the present invention consisted of 4 groups in total, that is, a control group, a 5 mg/kg compound administration group, a 10 mg/kg compound administration group, and a 20 mg/kg compound administration group, and each group consisted of 5 animals.\nThe control group was given 0.1 ml of 5.28% mannitol per 10 g of the body weight via the tail vein. The compound of the present invention was administered via the tail vein at each concentration (0.5 mg/ml, 1 mg/ml, and 2 mg/ml) in an volume of 0.1 ml per 10 g of the body weight into the 5 mg/kg group, 10 mg/kg group and 20 mg/kg group, respectively.\nThe treatment group by morphine consisted of 4 groups in total, that is, a control group, a 3 mg/kg morphine administration group, a 10 mg/kg morphine administration group, and a 30 mg/kg morphine administration group, and each group consisted of 5 animals.\nThe control group was orally given 0.1 ml of physiological saline per 10 g of the body weight. Morphine was orally administered at each concentration (0.3 mg/ml, 1 mg/ml, and 3 mg/ml) in a volume of 0.1 ml per 10 g of the body weight into the 3 mg/kg group, 10 mg/kg group and 30 mg/kg group, respectively.\nThe treatment group by indomethacin consisted of 4 groups in total, that is, a control group, a 1 mg/kg indomethacin administration group, a 3 mg/kg indomethacin administration group, and a 10 mg/kg indomethacin administration group, and each group consisted of 5 animals.\nThe control group was orally given 0.1 ml of 0.5% MC per 10 g of the body weight. Indomethacin was orally administered at each concentration (0.1 mg/ml, […], and 1 mg/ml) in a volume of 0.1 ml per 10 g of the body weight into the 1 mg/kg group, 3 mg/kg group and 10 mg/kg group, respectively.\n5.28% mannitol was administered via the tail vein into each group given the compound of the present invention or into the control group, and the animals were placed in a transparent plastic observation cage. 5 minutes later, 20 μl of 3% formalin was subcutaneously administered into the bottom of the left hind leg of each mouse. The duration of the behavior of mouse's licking the left hind leg after administration of formalin was measured for 5 minutes and used as an indication of pain. The duration was expressed in second. […]"}, "[1]": {"system": "rat model with occlusion in the middle cerebral artery", "assay": "Effect (II) of reducing infarct volume in a rat model with occlusion in the middle cerebral artery (permanent occlusion)", "type": "in vivo", "method": "Effect (II) of Reducing Infarct volume in a Rat Model with Occlusion in the Middle Cerebral Artery\nThe typical example of the compound of the present invention (the compound in Example 1) was compared with compounds disclosed in JP 8-508037-A (WO 94/25469, U.S. Pat. No. 5,750,525), which have affinity for AMPA receptors and is effective against cellular necrosis after ischemia in anoxia and hypocalcemia.\nThe compound of the present invention was dissolved in physiological saline to be adjusted to a dosage of 10 or 20 mg/kg/h just before use.\nThe control compound was dissolved in physiological saline to be adjusted to a dosage of 3 mg/kg/h just before use.\nOcclusion in the middle cerebral artery was conducted according to the method described above. However, the middle cerebral artery was permanently occluded without removing the nylon embolus.\nTwo hours after the middle cerebral artery was occluded, a syringe containing the medium or the sample (10 or 20 mg/kg/h) was attached to a catheter for intravenous administration, and half (0.31 ml) of the dosage to be infused for 1 hour was intravenously administered for 1 minute. Thereafter, the medium or the sample was administered continuously for 6 hours at a rate of 0.616 ml/h by the use of a syringe pump for infusion. During administration and for 2 hours after administration was finished, the temperature of the rectum was maintained in the range of 37.0 to 38.5° C. in a system for controlling body temperature. After the body temperature control was finished, the animal was returned to a cage and maintained for 1 day in a breeding room.\nTwo hours after the middle cerebral artery was occluded, a syringe containing the medium or the sample (3 mg/kg/h) was attached to a catheter for intravenous administration, and the medium or the sample was administered continuously for 6 hours at a rate of 0.616 ml/h by means of the syringe pump for infusion. During administration and for 2 hours after administration was finished, the temperature of the rectum was maintained in the range of 37.0 to 38.5° C. in the system for controlling body temperature. After the body temperature control was finished, the animal was returned to a cage and maintained for 1 day in a breeding room.\nThe middle cerebral artery was permanently occluded by the nylon embolus, and the infarct volume was measured 24 hours after the occlusion was conducted."}, "[2]": {"system": "rat model with local cerebral ischemia", "details": "literature reports (13, 14, 15); cited from earlier work"}, "formalin test": {"system": "formalin test", "details": "administered into spinal cord, literature reports (1, 2); cited from earlier work"}},
  "note": "“And” between values parts separate entries of the source, which are not always exact repeats. Equal entries are not always repeated.",
  "data": [
    {"compound": "CN1CC[C@]23c4c5ccc(O)c4O[C@H]2[C@@H](O)C=C[C@H]3[C@H]1C5", "note": "[morphine]", "values": [
      {"measurement": "average left hind leg-licking time, Mean", "setting": "mice in a formalin test; 3 mg/kg p.o., formalin 30 minutes later", "value": 68.2, "unit": "s"},
      {"measurement": "average left hind leg-licking time, Mean", "setting": "mice in a formalin test; 10 mg/kg p.o., formalin 30 minutes later", "value": 58.0, "unit": "s"},
      {"measurement": "average left hind leg-licking time, Mean", "setting": "mice in a formalin test; 30 mg/kg p.o., formalin 30 minutes later", "value": 29.6, "unit": "s"}
    ]},
    {"compound": "COc1ccc2c(c1)c(CC(=O)O)c(C)n2C(=O)c1ccc(Cl)cc1", "note": "[indomethacin]", "values": [
      {"measurement": "average left hind leg-licking time, Mean", "setting": "mice in a formalin test; 1 mg/kg p.o., formalin 90 minutes later", "value": 87.8, "unit": "s"},
      {"measurement": "average left hind leg-licking time, Mean", "setting": "mice in a formalin test; 3 mg/kg p.o., formalin 90 minutes later", "value": 75.8, "unit": "s"},
      {"measurement": "average left hind leg-licking time, Mean", "setting": "mice in a formalin test; 10 mg/kg p.o., formalin 90 minutes later", "value": 84.0, "unit": "s"},
      {"measurement": "antalgic effect in the formalin test", "setting": "mice in a formalin test; overall conclusion of the comparison", "value": "does not have any effect"}
    ]},
    {"compound": "O=c1[nH]c2cc(C(F)(F)F)c(N3CCOCC3)cc2n(CP(=O)(O)O)c1=O", "note": "[control compound, {[3,4-Dihydro-7-(4-morpholinyl)-2,3-dioxo-6-(trifluoromethyl)-1-(2H)-quinoxalinyl]methyl}phosphonic acid, reference compound]", "values": [
      {"measurement": "infarct volume compared with the control group", "setting": "[1]; 3 mg/kg/h i.v.", "value": "no difference from the control group"},
      {"measurement": "Infarct volume in the cerebral cortex, Mean", "setting": "[1]; 3 mg/kg/h i.v. (table: 3 mg/kg), from two hours after occlusion, 6 hours, 24 hours after occlusion", "value": "284.9±10.9 mm^3 and 284.9 mm^3"}
    ]},
    {"compound": "ω-agatoxin IVA", "values": [
      {"measurement": "protective action on nerve cells", "setting": "[2]", "value": "has a protective action on nerve cells"}
    ]},
    {"compound": "CSCC[C@@H]1NC(=O)[C@H](CC(C)C)NC(=O)[C@H](CCCNC(=N)N)NC(=O)[C@H](CO)NC(=O)[C@@H]2CSSC[C@@H]3NC(=O)[C@H](CO)NC(=O)CNC(=O)[C@H]([C@@H](C)O)NC(=O)[C@H](CSSC[C@H](N)C(=O)N[C@@H](CCCCN)C(=O)NCC(=O)N[C@@H](CCCCN)C(=O)NCC(=O)N[C@@H](C)C(=O)N[C@@H](CCCCN)C(=O)N2)NC(=O)[C@H](CSSC[C@@H](C(N)=O)NC(=O)[C@H](CCCCN)NC(=O)CNC(=O)[C@H](CO)NC(=O)[C@H](CCCNC(=N)N)NC3=O)NC(=O)[C@H](CC(=O)O)NC(=O)[C@H](Cc2ccc(O)cc2)NC1=O", "note": "[SNX-111]", "values": [
      {"measurement": "antalgic action", "setting": "formalin test", "value": "has an antalgic action"},
      {"measurement": "protective action on nerve cells", "setting": "[2]", "value": "serves for protection against the liberation of glutamic acid from the cerebral cortex and against the subsequent disturbance of nerve cells"}
    ]}
  ]
}
